Laboratory results taken from publication PMC6429263, “Evolution and Antibacterial Evaluation of 8-Hydroxy-cycloberberine Derivatives as a Novel Family of Antibacterial Agents Against MRSA” (Molecules, 2019).

Experiments:
[1] = system: MRSA ATCC-B AA-1708; experiment: MIC, agar dilution, MRSA ATCC-BAA-1708 (mupA positive); format: cell-based; conditions: Staphylococcus aureus; MRSA ATCC-BAA-1708, mupA positive (mupirocin resistance); read-out: MIC
[2] = system: MSSA 15; experiment: MIC, agar dilution, MSSA 15 (clinical isolate); format: cell-based, S. aureus; conditions: Staphylococcus aureus; MSSA 15, isolated from patients in China; read-out: MIC
[3] = system: MSSE ATCC 12228; experiment: MIC, agar dilution, MSSE ATCC 12228; format: cell-based, S. epidermidis; conditions: Staphylococcus epidermidis, ATCC12228; MSSE ATCC 12228; read-out: MIC
[4] = system: MRSE 13-3; experiment: MIC, agar dilution, MRSE 13-3; format: cell-based, S. epidermidis; conditions: Staphylococcus epidermidis; MRSE 13-3; read-out: MIC
[5] = system: S.h ATCC 35982; experiment: MIC, agar dilution, S.h ATCC 35982; format: cell-based; conditions: Staphylococcus hominis, ATCC35982; S. hominis ATCC 35982; read-out: MIC
[6] = system: MRSA 13-18; experiment: MIC, agar dilution, MRSA 13-18; format: cell-based; conditions: Staphylococcus aureus; MRSA 13-18; read-out: MIC
[7] = system: S.s ATCC 15305; experiment: MIC, agar dilution, S.s ATCC 15305; format: cell-based; conditions: Staphylococcus saprophyticus, ATCC15305; S. saprophyticus ATCC 15305; read-out: MIC
[8] = system: MSSA 16-1; experiment: MIC, agar dilution, MSSA 16-1 (clinical isolate); format: cell-based, S. aureus; conditions: Staphylococcus aureus; MSSA 16-1, isolated from patients in China; read-out: MIC
[9] = system: MRSA ATCC 43300; experiment: MIC, agar dilution, MRSA ATCC 43300; format: cell-based; conditions: Staphylococcus aureus; MRSA ATCC 43300; read-out: MIC
[10] = system: MSSA ATCC 29213; experiment: MIC, agar dilution, MSSA ATCC 29213; format: cell-based, S. aureus; conditions: Staphylococcus aureus; MSSA ATCC 29213; read-out: MIC
[11] = system: MRSA 13-23; experiment: MIC, agar dilution, MRSA 13-23; format: cell-based; conditions: Staphylococcus aureus; MRSA 13-23; read-out: MIC
[12] = system: MRSE 16-5; experiment: MIC, agar dilution, MRSE 16-5; format: cell-based, S. epidermidis; conditions: Staphylococcus epidermidis; MRSE 16-5; read-out: MIC
[13] = system: MRSA ATCC -BAA-976; experiment: MIC, agar dilution, MRSA ATCC-BAA-976 (clindamycin-resistant); format: cell-based; conditions: Staphylococcus aureus; MRSA ATCC-BAA-976, clindamycin-resistant S. aureus; read-out: MIC
[14] = system: MSSE 16-5; experiment: MIC, agar dilution, MSSE 16-5 (clinical isolate); format: cell-based, S. epidermidis; conditions: Staphylococcus epidermidis; MSSE 16-5, isolated from patients in China; read-out: MIC
[15] = system: MRSA 16-34; experiment: MIC, agar dilution, MRSA 16-34; format: cell-based; conditions: Staphylococcus aureus; MRSA 16-34; read-out: MIC
[16] = system: VISA ATCC 700699; experiment: MIC, agar dilution, VISA ATCC 700699; format: cell-based; conditions: Staphylococcus aureus; VISA ATCC 700699; read-out: MIC
[17] = system: VISA ATCC 700698; experiment: MIC, agar dilution, VISA ATCC 700698; format: cell-based; conditions: Staphylococcus aureus; VISA ATCC 700698; read-out: MIC

Measured: MIC

COc1ccc2c(c[n+]3ccc4cc5c(c6c(Cc7c(F)cccc7F)cc2c3c46)OCO5)c1O [13d, 1,2-Methylenedioxy-8-hydroxy-9-methoxy-13-2′,6′-difluorobenzylcycloberberine chloride]
32 µg/mL: [12]
> 64 µg/mL: all other assays above

COc1ccc2c(c[n+]3ccc4cc5c(c6c(Cc7ccccc7C)cc2c3c46)OCO5)c1O [13g, 1,2-Methylenedioxy-8-hydroxy-9-methoxy-13-o-methylbenzylcycloberberine chloride]
64 µg/mL: [4] | [12]
> 64 µg/mL: all other assays above

COc1ccc2c(c[n+]3ccc4cc5c(c6c(Cc7cc(C)cc(C)c7)cc2c3c46)OCO5)c1O [13j, 1,2-Methylenedioxy-8-hydroxy-9-methoxy-13-3′,5′-dimethylbenzylcycloberberine chloride]
64 µg/mL: [7]
16 µg/mL: [1] | [4] | [12] | [14] | [15]
32 µg/mL: all other assays above

COc1ccc2c(c[n+]3ccc4cc5c(c6c(Cc7ccc(C(C)(C)C)cc7)cc2c3c46)OCO5)c1O [13k, 1,2-Methylenedioxy-8-hydroxy-9-methoxy-13-p-tert-butylmethylbenzylcyclo berberine chloride]
8 µg/mL: [1] | [4] | [12] | [14]
16 µg/mL: [3] | [6] | [8] | [13] | [15]
32 µg/mL: all other assays above

COc1ccc2c(c[n+]3ccc4cc5c(c6c(Cc7ccc(OC(F)(F)F)cc7)cc2c3c46)OCO5)c1O [13l, 1,2-Methylenedioxy-8-hydroxy-9-methoxy-13-p-trifluoromethoxybenzylcyclo berberine chloride]
64 µg/mL: [5] | [7] | [9] | [13] | [17]
32 µg/mL: all other assays above

COc1ccc2c(c[n+]3ccc4cc5c(c6c(Cc7ccccc7C#N)cc2c3c46)OCO5)c1O [13m, 1,2-Methylenedioxy-8-hydroxy-9-methoxy-13-o-cyanbenzylcycloberberine chloride]
> 64 µg/mL: all assays above
